ChEMBL document CHEMBL3885881, “DrugMatrix”

Species on record: Rattus norvegicus
Experiment: DrugMatrix - Regimen: Daily Repeat
Format: toxicity, organism-based, Sprague-Dawley
Set-up: regimen Daily Repeat, gender Male, age 6-8 weeks
Settings: in vivo, po, route oral GAVAGE, vehicle 100 % WATER; for ABSOLUTE BASOPHIL / ABSOLUTE EOSINOPHIL / ABSOLUTE LYMPHOCYTE / ABSOLUTE MONOCYTE / ABSOLUTE SEGMENTED NEUTROPHIL / BASOPHIL / EOSINOPHIL / ERYTHROCYTE COUNT / HEMATOCRIT / HEMOGLOBIN / LEUKOCYTE COUNT / LYMPHOCYTE / MEAN CORPUSCULAR HEMOGLOBIN / MEAN CORPUSCULAR HEMOGLOBIN CONCENTRATION / MEAN CORPUSCULAR VOLUME / MONOCYTE / NEUTROPHIL / NUCLEATED RED BLOOD CELLS / PLATELET COUNT: tissue Blood; for ALANINE AMINOTRANSFERASE / ALBUMIN / ALKALINE PHOSPHATASE / ASPARTATE AMINOTRANSFERASE / BLOOD UREA NITROGEN / CARBON DIOXIDE / CHLORIDE / CHOLESTEROL / CREATINE PHOSPHOKINASE / CREATININE / GLUCOSE / LACTATE DEHYDROGENASE / LIPASE / PHOSPHORUS / POTASSIUM / SODIUM / TOTAL BILIRUBIN / TOTAL PROTEIN / URIC ACID: tissue Plasma
[1] = 0 mg/kg, 72 h, dose level Control, time 3 day
[2] = 0 mg/kg, 120 h, dose level Control, time 5 day
[3] = 30 mg/kg, 72 h, dose level Low, time 3 day
[4] = 30 mg/kg, 120 h, dose level Low, time 5 day

`COc1cccc(C2(O)CCCCC2CN(C)C)c1` (configuration not stated) [TRAMADOL] was tested, and the “ABSOLUTE BASOPHIL” value [1] was 0 CELLS/uL, the “ABSOLUTE EOSINOPHIL” value [1] was 32.5 CELLS/uL and the “ABSOLUTE LYMPHOCYTE” value [1] was 9305.83 CELLS/uL. For the same compound, the “ABSOLUTE MONOCYTE” value [1] was 43.83 CELLS/uL, the “ABSOLUTE SEGMENTED NEUTROPHIL” value [1] was 817.83 CELLS/uL and the BASOPHIL [1] was 0%. For the same compound, the EOSINOPHIL [1] was 0.33%, the “ERYTHROCYTE COUNT” value [1] was 5.38 x10E6/uL and the HEMATOCRIT [1] was 33.63%. The HEMOGLOBIN [1] was 13.17 G/DL, the “LEUKOCYTE COUNT” value [1] was 10.2 x10E3/uL and the LYMPHOCYTE [1] was 91.17%. For the same compound, the “MEAN CORPUSCULAR HEMOGLOBIN” value [1] was 24.5 pg, the “MEAN CORPUSCULAR HEMOGLOBIN CONCENTRATION” value [1] was 39.13 G/DL and the “MEAN CORPUSCULAR VOLUME” value [1] was 62.53 fL. The MONOCYTE [1] was 0.5%, the NEUTROPHIL [1] was 8% and the “NUCLEATED RED BLOOD CELLS” value [1] was 0.17 /100WBC. For the same compound, the “PLATELET COUNT” value [1] was 858 x10E3/uL, the “ALANINE AMINOTRANSFERASE” value [1] was 55.67 u/L and the ALBUMIN [1] was 4.07 G/DL. For the same compound, the “ALKALINE PHOSPHATASE” value [1] was 337 u/L, the “ASPARTATE AMINOTRANSFERASE” value [1] was 84 u/L and the “BLOOD UREA NITROGEN” value [1] was 13.17 mg/dL. The “CARBON DIOXIDE” value [1] was 34.17 mmol/L, the CHLORIDE [1] was 99.33 MEQ/L and the CHOLESTEROL [1] was 78.83 mg/dL. The “CREATINE PHOSPHOKINASE” value [1] was 576.83 u/L, the CREATININE [1] was 0.17 mg/dL and the GLUCOSE [1] was 152.67 mg/dL. For the same compound, the “LACTATE DEHYDROGENASE” value [1] was 147.83 u/L, the LIPASE [1] was 9.5 u/L and the PHOSPHORUS [1] was 10.78 mg/dL. For the same compound, the POTASSIUM [1] was 6.34 MEQ/L, the SODIUM [1] was 144.12 MEQ/L and the “TOTAL BILIRUBIN” value [1] was 0.18 mg/dL. For the same compound, the “TOTAL PROTEIN” value [1] was 6.08 G/DL, the “URIC ACID” value [1] was 0.65 mg/dL and the “ABSOLUTE BASOPHIL” value [2] was 0 CELLS/uL. The “ABSOLUTE EOSINOPHIL” value [2] was 31.17 CELLS/uL, the “ABSOLUTE LYMPHOCYTE” value [2] was 7918.33 CELLS/uL and the “ABSOLUTE MONOCYTE” value [2] was 58.33 CELLS/uL. For the same compound, the “ABSOLUTE SEGMENTED NEUTROPHIL” value [2] was 725.5 CELLS/uL, the BASOPHIL [2] was 0% and the EOSINOPHIL [2] was 0.33%. For the same compound, the “ERYTHROCYTE COUNT” value [2] was 5.32 x10E6/uL, the HEMATOCRIT [2] was 33.53% and the HEMOGLOBIN [2] was 13.17 G/DL. The “LEUKOCYTE COUNT” value [2] was 8.73 x10E3/uL, the LYMPHOCYTE [2] was 90.33% and the “MEAN CORPUSCULAR HEMOGLOBIN” value [2] was 24.82 pg. For the same compound, the “MEAN CORPUSCULAR HEMOGLOBIN CONCENTRATION” value [2] was 39.33 G/DL, the “MEAN CORPUSCULAR VOLUME” value [2] was 63.12 fL and the MONOCYTE [2] was 0.67%. The NEUTROPHIL [2] was 8.67%, the “NUCLEATED RED BLOOD CELLS” value [2] was 0 /100WBC and the “PLATELET COUNT” value [2] was 1144.83 x10E3/uL. The “ALANINE AMINOTRANSFERASE” value [2] was 60.5 u/L, the ALBUMIN [2] was 3.97 G/DL and the “ALKALINE PHOSPHATASE” value [2] was 343.17 u/L. The “ASPARTATE AMINOTRANSFERASE” value [2] was 80.83 u/L, the “BLOOD UREA NITROGEN” value [2] was 15 mg/dL and the “CARBON DIOXIDE” value [2] was 31 mmol/L. For the same compound, the CHLORIDE [2] was 99.75 MEQ/L, the CHOLESTEROL [2] was 71.5 mg/dL and the “CREATINE PHOSPHOKINASE” value [2] was 237.17 u/L. For the same compound, the CREATININE [2] was 0.17 mg/dL, the GLUCOSE [2] was 137 mg/dL and the “LACTATE DEHYDROGENASE” value [2] was 146.17 u/L. The LIPASE [2] was 11.5 u/L, the PHOSPHORUS [2] was 10.13 mg/dL and the POTASSIUM [2] was 6 MEQ/L. For the same compound, the SODIUM [2] was 145 MEQ/L, the “TOTAL BILIRUBIN” value [2] was 0.13 mg/dL and the “TOTAL PROTEIN” value [2] was 5.82 G/DL. The “URIC ACID” value [2] was 0.62 mg/dL, the “ABSOLUTE BASOPHIL” value [3] was 0 CELLS/uL and the “ABSOLUTE EOSINOPHIL” value [3] was 0 CELLS/uL. The “ABSOLUTE LYMPHOCYTE” value [3] was 6045 CELLS/uL, the “ABSOLUTE MONOCYTE” value [3] was 124.33 CELLS/uL and the “ABSOLUTE SEGMENTED NEUTROPHIL” value [3] was 697.33 CELLS/uL. For the same compound, the BASOPHIL [3] was 0%, the EOSINOPHIL [3] was 0% and the “ERYTHROCYTE COUNT” value [3] was 5.35 x10E6/uL. For the same compound, the HEMATOCRIT [3] was 33.3%, the HEMOGLOBIN [3] was 13.03 G/DL and the “LEUKOCYTE COUNT” value [3] was 6.87 x10E3/uL. The LYMPHOCYTE [3] was 88.33%, the “MEAN CORPUSCULAR HEMOGLOBIN” value [3] was 24.4 pg and the “MEAN CORPUSCULAR HEMOGLOBIN CONCENTRATION” value [3] was 39.13 G/DL. The “MEAN CORPUSCULAR VOLUME” value [3] was 62.23 fL, the MONOCYTE [3] was 1.67% and the NEUTROPHIL [3] was 10%. For the same compound, the “NUCLEATED RED BLOOD CELLS” value [3] was 0.67 /100WBC, the “PLATELET COUNT” value [3] was 1017 x10E3/uL and the “ALANINE AMINOTRANSFERASE” value [3] was 47.33 u/L. For the same compound, the ALBUMIN [3] was 4.13 G/DL, the “ALKALINE PHOSPHATASE” value [3] was 434.67 u/L and the “ASPARTATE AMINOTRANSFERASE” value [3] was 82.67 u/L. The “BLOOD UREA NITROGEN” value [3] was 12.33 mg/dL, the “CARBON DIOXIDE” value [3] was 34.67 mmol/L and the CHLORIDE [3] was 99.67 MEQ/L. The CHOLESTEROL [3] was 72.33 mg/dL, the “CREATINE PHOSPHOKINASE” value [3] was 347.67 u/L and the CREATININE [3] was 0.16 mg/dL. For the same compound, the GLUCOSE [3] was 136.33 mg/dL, the “LACTATE DEHYDROGENASE” value [3] was 123.33 u/L and the LIPASE [3] was 9.33 u/L. The PHOSPHORUS [3] was 11 mg/dL, the POTASSIUM [3] was 6.23 MEQ/L and the SODIUM [3] was 144.43 MEQ/L. The “TOTAL BILIRUBIN” value [3] was 0.2 mg/dL, the “TOTAL PROTEIN” value [3] was 5.93 G/DL and the “URIC ACID” value [3] was 0.8 mg/dL. The “ABSOLUTE BASOPHIL” value [4] was 0 CELLS/uL, the “ABSOLUTE EOSINOPHIL” value [4] was 97.33 CELLS/uL and the “ABSOLUTE LYMPHOCYTE” value [4] was 8968.67 CELLS/uL. The “ABSOLUTE MONOCYTE” value [4] was 0 CELLS/uL, the “ABSOLUTE SEGMENTED NEUTROPHIL” value [4] was 967.33 CELLS/uL and the BASOPHIL [4] was 0%. For the same compound, the EOSINOPHIL [4] was 1%, the “ERYTHROCYTE COUNT” value [4] was 5.45 x10E6/uL and the HEMATOCRIT [4] was 35.3%. For the same compound, the HEMOGLOBIN [4] was 13.57 G/DL, the “LEUKOCYTE COUNT” value [4] was 10.03 x10E3/uL and the LYMPHOCYTE [4] was 88.67%. For the same compound, the “MEAN CORPUSCULAR HEMOGLOBIN” value [4] was 24.87 pg, the “MEAN CORPUSCULAR HEMOGLOBIN CONCENTRATION” value [4] was 38.47 G/DL and the “MEAN CORPUSCULAR VOLUME” value [4] was 64.67 fL. For the same compound, the MONOCYTE [4] was 0%, the NEUTROPHIL [4] was 10.33% and the “NUCLEATED RED BLOOD CELLS” value [4] was 0 /100WBC. For the same compound, the “PLATELET COUNT” value [4] was 1078.67 x10E3/uL, the “ALANINE AMINOTRANSFERASE” value [4] was 45 u/L and the ALBUMIN [4] was 4.03 G/DL. For the same compound, the “ALKALINE PHOSPHATASE” value [4] was 395 u/L, the “ASPARTATE AMINOTRANSFERASE” value [4] was 72 u/L and the “BLOOD UREA NITROGEN” value [4] was 13 mg/dL. For the same compound, the “CARBON DIOXIDE” value [4] was 30.67 mmol/L, the CHLORIDE [4] was 99 MEQ/L and the CHOLESTEROL [4] was 69.33 mg/dL. The “CREATINE PHOSPHOKINASE” value [4] was 188 u/L, the CREATININE [4] was 0.17 mg/dL and the GLUCOSE [4] was 143.67 mg/dL. The “LACTATE DEHYDROGENASE” value [4] was 113.33 u/L, the LIPASE [4] was 9.33 u/L and the PHOSPHORUS [4] was 11.2 mg/dL. The POTASSIUM [4] was 6.21 MEQ/L, the SODIUM [4] was 144.27 MEQ/L and the “TOTAL BILIRUBIN” value [4] was 0.2 mg/dL. For the same compound, the “TOTAL PROTEIN” value [4] was 5.8 G/DL and the “URIC ACID” value [4] was 1.2 mg/dL.
